Data published in patent US20230085307A1, “PYRIDAZINONE COMPOUND AND HERBICIDE” (NISSAN CHEMICAL CORPORATION, priority 2019, published 2023).

Columns and labels:
Japanese bulrush [1] = experiment: Test Example 1: herbicidal activity, application before weed generation under submerged conditions (Table 16, symbol B); type: in vivo, Japanese bulrush (Schoenoplectus juncoides); settings: amount of applied herbicide 320 g/ha
Procedure, shortened: (§1)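 Submerged Wagner pots (alluvial soil, 4 cm water) sown with weed seeds and planted with 2.5-leaf rice seedlings; emulsifiable concentrate diluted in water applied to water surface on sowing day. Held in greenhouse at 25-30 °C; injury scored 0-5 by herbicidal rate after three weeks.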

oval-leafed pondweed = experiment: Test Example 1: herbicidal activity, application before weed generation under submerged conditions (Table 16, symbol C); type: in vivo, oval-leafed pondweed (Monochoria vaginalis); settings: amount of applied herbicide 320 g/ha
Procedure, shortened: as §1

late watergrass = experiment: Test Example 2: herbicidal activity, application during weed generation under submerged conditions (Table 17, symbol A); type: in vivo, late watergrass (Echinochloa oryzicola); settings: for herbicidal effect grade, A: late watergrass: application during weed generation under submerged conditions, amount of applied herbicide 320 g/ha
Procedure, shortened: (§2)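 Herbicide emulsion, diluted with water to the chosen amount, is applied onto 4 cm floodwater over alluvial soil where the weeds were co-sown and raised at 25–30° C. Application timing: 1–2 leaves. Assessment: three weeks afterwards.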

Japanese bulrush [2] = experiment: Test Example 2: herbicidal activity, application during weed generation under submerged conditions (Table 17, symbol B); type: in vivo, Japanese bulrush (Schoenoplectus juncoides); settings: for herbicidal effect grade, B: Japanese bulrush: application during weed generation under submerged conditions, amount of applied herbicide 320 g/ha
Procedure, shortened: as §2

rice flat sedge = experiment: Test Example 3: herbicidal effect by foliage application, Wagner pot (Table 18, symbol E); type: in vivo, rice flat sedge (Cyperus iria); settings: for Herbicidal effect on E (rice flat sedge), foliage application: amount of applied herbicide 320 g/ha
Procedure, shortened: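 Plants were sown in alluvial soil held under 0.1–0.5 cm standing water and grown 14 days in a greenhouse at 25–30 °C. An emulsifiable formulation, water-diluted to the set dose, was then sprayed onto the foliage, and effects were scored three weeks later using previously defined criteria.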

wild oat [3] = experiment: Test Example 4: herbicidal effect by soil treatment (Table 19, symbol I); type: in vivo, wild oat (Avena fatua); settings: amount of applied herbicide 320 g/ha
Procedure, shortened: (§3)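 Pre-emergence style soil spray: seeds under ~1.5 cm sterilized diluvial soil received a uniform coat of emulsion diluted to the predetermined herbicide amount. Greenhouse 25–30° C; readout at week three on previously defined criteria.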

Italian ryegrass [4] = experiment: Test Example 4: herbicidal effect by soil treatment (Table 19, symbol K); type: in vivo, Italian ryegrass (Lolium multiflorum); settings: amount of applied herbicide 320 g/ha
Procedure, shortened: as §3

velvetleaf [5] = experiment: Test Example 4: herbicidal effect by soil treatment (Table 19, symbol M); type: in vivo, velvetleaf (Abutilon theophrasti); settings: amount of applied herbicide 320 g/ha
Procedure, shortened: as §3

lambsquarters [6] = experiment: Test Example 4: herbicidal effect by soil treatment (Table 19, symbol O); type: in vivo, lambsquarters (Chenopodium album); settings: amount of applied herbicide 320 g/ha
Procedure, shortened: as §3

persian speedwell = experiment: Test Example 4: herbicidal effect by soil treatment (Table 19, symbol R); type: in vivo, Persian speedwell (Veronica persica); settings: amount of applied herbicide 320 g/ha
Procedure, shortened: as §3

barnyard grass = experiment: Test Example 5: herbicidal effect by foliage application, plastic box (Table 20, symbol H); type: in vivo, barnyard grass (Echinochloa crus-galli); settings: for H (barnyard grass) herbicidal effect grade: foliage application, 320 g/ha, evaluated 3 weeks after application
Procedure, shortened: (§4)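 Plants were sown into sterilized diluvial soil under about 1.5 cm cover and kept in a greenhouse at 25° C. to 30° C. Fourteen days on, foliage received an even spray of the diluted emulsion. Herbicidal or crop effect was judged three weeks afterwards.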

wild oat [7] = experiment: Test Example 5: herbicidal effect by foliage application, plastic box (Table 20, symbol I); type: in vivo, wild oat (Avena fatua); settings: for I (wild oat) herbicidal effect grade: foliage application, 320 g/ha, evaluated 3 weeks after application
Procedure, shortened: as §4

Italian ryegrass [8] = experiment: Test Example 5: herbicidal effect by foliage application, plastic box (Table 20, symbol K); type: in vivo, Italian ryegrass (Lolium multiflorum); settings: for K (Italian ryegrass) herbicidal effect grade: foliage application, 320 g/ha, evaluated 3 weeks after application
Procedure, shortened: as §4

windgrass = experiment: Test Example 5: herbicidal effect by foliage application, plastic box (Table 20, symbol L); type: in vivo, windgrass (Apera spica-venti); settings: for L (windgrass) herbicidal effect grade: foliage application, 320 g/ha, evaluated 3 weeks after application
Procedure, shortened: as §4

velvetleaf [9] = experiment: Test Example 5: herbicidal effect by foliage application, plastic box (Table 20, symbol M); type: in vivo, velvetleaf (Abutilon theophrasti); settings: for M (velvetleaf) herbicidal effect grade: foliage application, 320 g/ha, evaluated 3 weeks after application
Procedure, shortened: as §4

lambsquarters [10] = experiment: Test Example 5: herbicidal effect by foliage application, plastic box (Table 20, symbol O); type: in vivo, lambsquarters (Chenopodium album); settings: for O (lambsquarters) herbicidal effect grade: foliage application, 320 g/ha, evaluated 3 weeks after application
Procedure, shortened: as §4

chickweed = experiment: Test Example 5: herbicidal effect by foliage application, plastic box (Table 20, symbol P); type: in vivo, common chickweed (Stellaria media); settings: for P (chickweed) herbicidal effect grade: foliage application, 320 g/ha, evaluated 3 weeks after application
Procedure, shortened: as §4

[11] = AAH 320 g/ha, application during weed generation, submerged conditions
[12] = amount of applied herbicide 320 g/ha, foliage application after 14-day growth, evaluated three weeks after application

Structure (SMILES): CCCC(=O)Oc1c(C)nn(C)c(=O)c1-c1c(-c2ccc(C#N)cc2)sc2cc(F)c(F)cc12 [5-026]
- Herbicidal effect, B: Japanese bulrush (Japanese bulrush [1]): 0 (Herbicidal rate of 5% or less (almost no effect))
- Herbicidal effect, C: oval-leafed pondweed (oval-leafed pondweed): 0 (Herbicidal rate of 5% or less (almost no effect))
- herbicidal effect rating, A: late watergrass (late watergrass; [11]): 2 (Herbicidal rate of 20% or more and less than 40%)
- herbicidal effect rating, B: Japanese bulrush (Japanese bulrush [2]; [11]): 0 (Herbicidal rate of 5% or less (almost no effect))
- herbicidal effect on rice flat sedge (E) (rice flat sedge; 320 g/ha): 5 (Herbicidal rate of 90% or more (almost completely withered))
- I: wild oat, herbicidal effect grade (wild oat [3]): 0 (Herbicidal rate of 5% or less (almost no effect))
- K: Italian ryegrass, herbicidal effect grade (Italian ryegrass [4]): 0 (Herbicidal rate of 5% or less (almost no effect))
- M: velvetleaf, herbicidal effect grade (velvetleaf [5]): 0 (Herbicidal rate of 5% or less (almost no effect))
- O: lambsquarters, herbicidal effect grade (lambsquarters [6]): 4 (Herbicidal rate of 70% or more and less than 90%)
- R: persian speedwell, herbicidal effect grade (persian speedwell): 4 (Herbicidal rate of 70% or more and less than 90%)
- Herbicidal effect by foliage application, H: barnyard grass (barnyard grass; [12]): 0 (Herbicidal rate of 5% or less (almost no effect))
- Herbicidal effect by foliage application, I: wild oat (wild oat [7]; [12]): 1 (Herbicidal rate of 5% or more and less than 20%)
- Herbicidal effect by foliage application, K: Italian ryegrass (Italian ryegrass [8]; [12]): 0 (Herbicidal rate of 5% or less (almost no effect))
- Herbicidal effect by foliage application, L: windgrass (windgrass; [12]): 0 (Herbicidal rate of 5% or less (almost no effect))
- Herbicidal effect by foliage application, M: velvetleaf (velvetleaf [9]; [12]): 3 (Herbicidal rate of 40% or more and less than 70%)
- Herbicidal effect by foliage application, O: lambsquarters (lambsquarters [10]; [12]): 4 (Herbicidal rate of 70% or more and less than 90%)
- Herbicidal effect by foliage application, P: chickweed (chickweed; [12]): 5 (Herbicidal rate of 90% or more (almost completely withered))

Structure (SMILES): Cc1ccc2oc(-c3ccc(OCC(C)C)cc3)c(-c3c(O)c(C)nn(C)c3=O)c2c1 [9-051]
- Herbicidal effect, B: Japanese bulrush (Japanese bulrush [1]): 5 (Herbicidal rate of 90% or more (almost completely withered))
- Herbicidal effect, C: oval-leafed pondweed (oval-leafed pondweed): 5 (Herbicidal rate of 90% or more (almost completely withered))
- herbicidal effect grade, A: late watergrass (late watergrass): 5 (Herbicidal rate of 90% or more (almost completely withered))
- herbicidal effect grade, B: Japanese bulrush (Japanese bulrush [2]): 4 (Herbicidal rate of 70% or more and less than 90%)
- Herbicidal effect on E (rice flat sedge), foliage application (rice flat sedge): 4 (Herbicidal rate of 70% or more and less than 90%)
- I: wild oat, herbicidal effect grade (wild oat [3]): 0 (Herbicidal rate of 5% or less (almost no effect))
- K: Italian ryegrass, herbicidal effect grade (Italian ryegrass [4]): 5 (Herbicidal rate of 90% or more (almost completely withered))
- M: velvetleaf, herbicidal effect grade (velvetleaf [5]): 3 (Herbicidal rate of 40% or more and less than 70%)
- O: lambsquarters, herbicidal effect grade (lambsquarters [6]): 5 (Herbicidal rate of 90% or more (almost completely withered))
- R: persian speedwell, herbicidal effect grade (persian speedwell): 5 (Herbicidal rate of 90% or more (almost completely withered))
- H (barnyard grass) herbicidal effect grade (barnyard grass): 4 (Herbicidal rate of 70% or more and less than 90%)
- I (wild oat) herbicidal effect grade (wild oat [7]): 1 (Herbicidal rate of 5% or more and less than 20%)
- K (Italian ryegrass) herbicidal effect grade (Italian ryegrass [8]): 5 (Herbicidal rate of 90% or more (almost completely withered))
- L (windgrass) herbicidal effect grade (windgrass): 2 (Herbicidal rate of 20% or more and less than 40%)
- M (velvetleaf) herbicidal effect grade (velvetleaf [9]): 5 (Herbicidal rate of 90% or more (almost completely withered))
- O (lambsquarters) herbicidal effect grade (lambsquarters [10]): 5 (Herbicidal rate of 90% or more (almost completely withered))
- P (chickweed) herbicidal effect grade (chickweed): 5 (Herbicidal rate of 90% or more (almost completely withered))

Structure (SMILES): CSc1ccc(-c2oc3ccc(C)cc3c2-c2c(O)c(C)nn(C)c2=O)cc1 [9-055]
- Herbicidal effect, B: Japanese bulrush (Japanese bulrush [1]): 4 (Herbicidal rate of 70% or more and less than 90%)
- Herbicidal effect, C: oval-leafed pondweed (oval-leafed pondweed): 4 (Herbicidal rate of 70% or more and less than 90%)
- herbicidal effect grade, A: late watergrass (late watergrass): 4 (Herbicidal rate of 70% or more and less than 90%)
- herbicidal effect grade, B: Japanese bulrush (Japanese bulrush [2]): 3 (Herbicidal rate of 40% or more and less than 70%)
- Herbicidal effect on E (rice flat sedge), foliage application (rice flat sedge): 5 (Herbicidal rate of 90% or more (almost completely withered))
- I: wild oat, herbicidal effect grade (wild oat [3]): 0 (Herbicidal rate of 5% or less (almost no effect))
- K: Italian ryegrass, herbicidal effect grade (Italian ryegrass [4]): 5 (Herbicidal rate of 90% or more (almost completely withered))
- M: velvetleaf, herbicidal effect grade (velvetleaf [5]): 5 (Herbicidal rate of 90% or more (almost completely withered))
- O: lambsquarters, herbicidal effect grade (lambsquarters [6]): 4 (Herbicidal rate of 70% or more and less than 90%)
- R: persian speedwell, herbicidal effect grade (persian speedwell): 5 (Herbicidal rate of 90% or more (almost completely withered))
- H (barnyard grass) herbicidal effect grade (barnyard grass): 4 (Herbicidal rate of 70% or more and less than 90%)
- I (wild oat) herbicidal effect grade (wild oat [7]): 0 (Herbicidal rate of 5% or less (almost no effect))
- K (Italian ryegrass) herbicidal effect grade (Italian ryegrass [8]): 5 (Herbicidal rate of 90% or more (almost completely withered))
- L (windgrass) herbicidal effect grade (windgrass): 4 (Herbicidal rate of 70% or more and less than 90%)
- M (velvetleaf) herbicidal effect grade (velvetleaf [9]): 5 (Herbicidal rate of 90% or more (almost completely withered))
- O (lambsquarters) herbicidal effect grade (lambsquarters [10]): 5 (Herbicidal rate of 90% or more (almost completely withered))
- P (chickweed) herbicidal effect grade (chickweed): 5 (Herbicidal rate of 90% or more (almost completely withered))

Structure (SMILES): CCSc1ccc(-c2oc3ccc(C)cc3c2-c2c(O)c(C)nn(C)c2=O)cc1 [9-057]
- Herbicidal effect, B: Japanese bulrush (Japanese bulrush [1]): 4 (Herbicidal rate of 70% or more and less than 90%)
- Herbicidal effect, C: oval-leafed pondweed (oval-leafed pondweed): 4 (Herbicidal rate of 70% or more and less than 90%)
- herbicidal effect grade, A: late watergrass (late watergrass): 5 (Herbicidal rate of 90% or more (almost completely withered))
- herbicidal effect grade, B: Japanese bulrush (Japanese bulrush [2]): 3 (Herbicidal rate of 40% or more and less than 70%)
- Herbicidal effect on E (rice flat sedge), foliage application (rice flat sedge): 5 (Herbicidal rate of 90% or more (almost completely withered))
- I: wild oat, herbicidal effect grade (wild oat [3]): 0 (Herbicidal rate of 5% or less (almost no effect))
- K: Italian ryegrass, herbicidal effect grade (Italian ryegrass [4]): 5 (Herbicidal rate of 90% or more (almost completely withered))
- M: velvetleaf, herbicidal effect grade (velvetleaf [5]): 4 (Herbicidal rate of 70% or more and less than 90%)
- O: lambsquarters, herbicidal effect grade (lambsquarters [6]): 5 (Herbicidal rate of 90% or more (almost completely withered))
- R: persian speedwell, herbicidal effect grade (persian speedwell): 5 (Herbicidal rate of 90% or more (almost completely withered))
- H (barnyard grass) herbicidal effect grade (barnyard grass): 3 (Herbicidal rate of 40% or more and less than 70%)
- I (wild oat) herbicidal effect grade (wild oat [7]): 3 (Herbicidal rate of 40% or more and less than 70%)
- K (Italian ryegrass) herbicidal effect grade (Italian ryegrass [8]): 5 (Herbicidal rate of 90% or more (almost completely withered))
- L (windgrass) herbicidal effect grade (windgrass): 3 (Herbicidal rate of 40% or more and less than 70%)
- M (velvetleaf) herbicidal effect grade (velvetleaf [9]): 5 (Herbicidal rate of 90% or more (almost completely withered))
- O (lambsquarters) herbicidal effect grade (lambsquarters [10]): 5 (Herbicidal rate of 90% or more (almost completely withered))
- P (chickweed) herbicidal effect grade (chickweed): 5 (Herbicidal rate of 90% or more (almost completely withered))
